Test results from ChEMBL document CHEMBL4699440, “Comprehensive review on the anti-bacterial activity of 1,2,3-triazole hybrids” (Eur J Med Chem, 2019).
≈ marks a conversion by molar mass, not a printed value.

Columns and labels:
Format in all cases: functional
Staphylococcus aureus [1] = test: Antibacterial activity against Staphylococcus aureus MTCC 96 incubated for 24 hrs by macrodilution tube method
Bacillus cereus [2] = test: Antibacterial activity against Bacillus cereus MTCC 430 incubated for 24 hrs by macrodilution tube method
Staphylococcus aureus [3] = test: Antibacterial activity against Staphylococcus aureus by agar dilution method
Escherichia coli [4] = test: Antibacterial activity against Escherichia coli by agar dilution method
Pseudomonas aeruginosa [5] = test: Antibacterial activity against Pseudomonas aeruginosa by agar dilution method
Bacillus cereus [6] = test: Antibacterial activity against Bacillus cereus by agar dilution method
Escherichia coli [7] = test: Antibacterial activity against ESBL-producing Escherichia coli ATCC 25925 by CLSI-based broth dilution method
Staphylococcus aureus [8] = test: Antibacterial activity against methicillin-sensitive Staphylococcus aureus by CLSI-based broth dilution method
Klebsiella pneumoniae = test: Antibacterial activity against Klebsiella pneumoniae ATCC 27736 by CLSI-based broth dilution method
Enterococcus faecium = test: Antibacterial activity against vancomycin-resistant Enterococcus faecium by CLSI-based broth dilution method; conditions: time 24 hrs
Staphylococcus aureus [9] = test: Antibacterial activity against methicillin-resistant Staphylococcus aureus ATCC 25923 by CLSI-based broth dilution method
Pseudomonas aeruginosa [10] = test: Antibacterial activity against Pseudomonas aeruginosa ATCC 27853 by CLSI-based broth dilution method

Row | Compound | MIC (Staphylococcus aureus [1]) | MIC (Bacillus cereus [2]) | MIC (Staphylococcus aureus [3]) | MIC (Escherichia coli [4]) | MIC (Pseudomonas aeruginosa [5]) | MIC (Bacillus cereus [6]) | other results
1 | CC1(C)CC(=O)C2=C(C1)Oc1cc3ccc(OCc4cn(-c5ccnc6cc(Cl)ccc56)nn4)cc3cc1C2c1ccccc1 (stereo unspecified) | 16 µg/mL (≈ 26.1 µM) | 16 µg/mL (≈ 26.1 µM) | – | – | – | – | –
2 | Cc1ccc(C2C3=C(CC(C)(C)CC3=O)Oc3cc4ccc(OCc5cn(-c6ccnc7cc(Cl)ccc67)nn5)cc4cc32)cc1 (stereo unspecified) | 16 µg/mL (≈ 25.5 µM) | 16 µg/mL (≈ 25.5 µM) | – | – | – | – | –
3 | COc1ccc(C2C3=C(CC(C)(C)CC3=O)Oc3cc4ccc(OCc5cn(-c6ccnc7cc(Cl)ccc67)nn5)cc4cc32)cc1 (stereo unspecified) | 16 µg/mL (≈ 24.9 µM) | 16 µg/mL (≈ 24.9 µM) | – | – | – | – | –
4 | O=C(N/N=C/c1cn(-c2ccccc2)nc1-c1cccc2ccccc12)c1cccc(-n2cc(-c3ccccc3)nn2)c1 | – | – | 2 µg/mL (≈ 3.57 µM) | 2 µg/mL (≈ 3.57 µM) | 2 µg/mL (≈ 3.57 µM) | 2 µg/mL (≈ 3.57 µM) | –
5 | COc1ccc(-c2nn(-c3ccccc3)cc2/C=N/NC(=O)c2cccc(-n3cc(-c4ccccc4)nn3)c2)cc1OC | – | – | 2 µg/mL (≈ 3.51 µM) | 2 µg/mL (≈ 3.51 µM) | 2 µg/mL (≈ 3.51 µM) | 2 µg/mL (≈ 3.51 µM) | –
6 | CC1(C)CC(=O)C2=C(C1)Oc1cc3ccc(OCc4cn(-c5ccnc6cc(Cl)ccc56)nn4)cc3cc1C2c1ccc(Br)cc1 (stereo unspecified) | 16 µg/mL (≈ 23.1 µM) | 16 µg/mL (≈ 23.1 µM) | – | – | – | – | –
7 | COc1ccc(-n2cc(COc3ccc(-c4nc5cc(C(=N)N)ccc5[nH]4)cc3)nn2)cc1 | – | – | – | – | – | – | MIC (Escherichia coli [7]): 16 µg/mL (≈ 36.4 µM); MIC (Staphylococcus aureus [8]): 16 µg/mL (≈ 36.4 µM); MIC (Klebsiella pneumoniae): 16 µg/mL (≈ 36.4 µM); MIC (Enterococcus faecium): 16 µg/mL (≈ 36.4 µM); MIC (Staphylococcus aureus [9]): 16 µg/mL (≈ 36.4 µM); MIC (Pseudomonas aeruginosa [10]): 16 µg/mL (≈ 36.4 µM)
8 | CC(C)c1ccc(C2C3=C(CCCC3=O)Oc3cc4ccc(OCc5cn(-c6ccnc7cc(Cl)ccc67)nn5)cc4cc32)cc1 (stereo unspecified) | 16 µg/mL (≈ 25.5 µM) | 16 µg/mL (≈ 25.5 µM) | – | – | – | – | –
9 | c1ccc(Cn2cc(COc3ccc(-c4nc5cc(C6=NCCN6)ccc5[nH]4)cc3)nn2)cc1 | – | – | – | – | – | – | MIC (Escherichia coli [7]): 8 µg/mL (≈ 17.8 µM); MIC (Staphylococcus aureus [8]): 8 µg/mL (≈ 17.8 µM); MIC (Klebsiella pneumoniae): 8 µg/mL (≈ 17.8 µM); MIC (Enterococcus faecium): 8 µg/mL (≈ 17.8 µM); MIC (Staphylococcus aureus [9]): 8 µg/mL (≈ 17.8 µM); MIC (Pseudomonas aeruginosa [10]): 8 µg/mL (≈ 17.8 µM)
10 | O=C1CCCC2=C1C(c1cccc3ccccc13)c1cc3cc(OCc4cn(-c5ccnc6cc(Cl)ccc56)nn4)ccc3cc1O2 (stereo unspecified) | 16 µg/mL (≈ 25.2 µM) | 16 µg/mL (≈ 25.2 µM) | – | – | – | – | –
11 | O=C(N/N=C/c1cn(-c2ccccc2)nc1-c1ccc(Br)cc1)c1cccc(-n2cc(-c3ccccc3)nn2)c1 | – | – | 2 µg/mL (≈ 3.4 µM) | 2 µg/mL (≈ 3.4 µM) | 2 µg/mL (≈ 3.4 µM) | 2 µg/mL (≈ 3.4 µM) | –
12 | CC1(C)CC(=O)C2=C(C1)Oc1cc3ccc(OCc4cn(-c5ccnc6cc(Cl)ccc56)nn4)cc3cc1C2c1cccc2ccccc12 (stereo unspecified) | 16 µg/mL (≈ 24.1 µM) | 16 µg/mL (≈ 24.1 µM) | – | – | – | – | –
13 | O=C(N/N=C/c1cn(-c2ccccc2)nc1-c1ccc([N+](=O)[O-])cc1)c1cccc(-n2cc(-c3ccccc3)nn2)c1 | – | – | 2 µg/mL (≈ 3.61 µM) | 2 µg/mL (≈ 3.61 µM) | 2 µg/mL (≈ 3.61 µM) | 2 µg/mL (≈ 3.61 µM) | –
14 | Clc1ccc(-n2cc(COc3ccc(-c4nc5cc(C6=NCCN6)ccc5[nH]4)cc3)nn2)cc1 | – | – | – | – | – | – | MIC (Escherichia coli [7]): 8 µg/mL (≈ 17 µM); MIC (Staphylococcus aureus [8]): 8 µg/mL (≈ 17 µM); MIC (Klebsiella pneumoniae): 8 µg/mL (≈ 17 µM); MIC (Enterococcus faecium): 8 µg/mL (≈ 17 µM); MIC (Staphylococcus aureus [9]): 8 µg/mL (≈ 17 µM); MIC (Pseudomonas aeruginosa [10]): 8 µg/mL (≈ 17 µM)
15 | O=C(N/N=C/c1cn(-c2ccccc2)nc1-c1cccs1)c1cccc(-n2cc(-c3ccccc3)nn2)c1 | – | – | 2 µg/mL (≈ 3.88 µM) | 2 µg/mL (≈ 3.88 µM) | 2 µg/mL (≈ 3.88 µM) | 2 µg/mL (≈ 3.88 µM) | –
16 | COc1ccc(C2C3=C(CC(C)(C)CC3=O)Oc3cc4ccc(OCc5cn(-c6ccnc7cc(Cl)ccc67)nn5)cc4cc32)cc1OC (stereo unspecified) | 16 µg/mL (≈ 23.8 µM) | 16 µg/mL (≈ 23.8 µM) | – | – | – | – | –
17 | CC(C)NC(=N)c1ccc2[nH]c(-c3ccc(OCc4cn(-c5ccc(Cl)cc5)nn4)cc3)nc2c1 | – | – | – | – | – | – | MIC (Escherichia coli [7]): 8 µg/mL (≈ 16.5 µM); MIC (Staphylococcus aureus [8]): 8 µg/mL (≈ 16.5 µM); MIC (Klebsiella pneumoniae): 8 µg/mL (≈ 16.5 µM); MIC (Enterococcus faecium): 8 µg/mL (≈ 16.5 µM); MIC (Staphylococcus aureus [9]): 8 µg/mL (≈ 16.5 µM); MIC (Pseudomonas aeruginosa [10]): 8 µg/mL (≈ 16.5 µM)
18 | CC1(C)CC(=O)C2=C(C1)Oc1cc3ccc(OCc4cn(-c5ccnc6cc(Cl)ccc56)nn4)cc3cc1C2c1ccc(F)cc1 (stereo unspecified) | 16 µg/mL (≈ 25.4 µM) | 16 µg/mL (≈ 25.4 µM) | – | – | – | – | –
19 | O=C(N/N=C/c1cn(-c2ccccc2)nc1-c1ccc(O)cc1O)c1cccc(-n2cc(-c3ccccc3)nn2)c1 | – | – | 2 µg/mL (≈ 3.69 µM) | 2 µg/mL (≈ 3.69 µM) | 2 µg/mL (≈ 3.69 µM) | 2 µg/mL (≈ 3.69 µM) | –
20 | O=C(N/N=C/c1cn(-c2ccccc2)nc1-c1ccc(Cl)cc1)c1cccc(-n2cc(-c3ccccc3)nn2)c1 | – | – | 4 µg/mL (≈ 7.35 µM) | 4 µg/mL (≈ 7.35 µM) | 4 µg/mL (≈ 7.35 µM) | 4 µg/mL (≈ 7.35 µM) | –
21 | Cc1ccc(-c2nn(-c3ccccc3)cc2/C=N/NC(=O)c2cccc(-n3cc(-c4ccccc4)nn3)c2)cc1 | – | – | 2 µg/mL (≈ 3.82 µM) | 2 µg/mL (≈ 3.82 µM) | 2 µg/mL (≈ 3.82 µM) | 2 µg/mL (≈ 3.82 µM) | –
22 | O=C1CCCC2=C1C(c1ccc(Br)cc1)c1cc3cc(OCc4cn(-c5ccnc6cc(Cl)ccc56)nn4)ccc3cc1O2 (stereo unspecified) | 16 µg/mL (≈ 24.1 µM) | 16 µg/mL (≈ 24.1 µM) | – | – | – | – | –
